Source: patent publication US20120245177A1, “CRYSTALLINE LEVOFOLINIC ACID AND PROCESS FOR ITS PREPARATION” (GMT FINE CHEMICALS SA, priority 2011, published 2012)

Key:
[1] = easily converted into by-products if pH lower than 3.0 or temperature reaches 60° C. during pH lowering; per U.S. Pat. No. 6,441,168 B1; cited from earlier work
[2] = Long-term stability test (ICH conditions); assay type: physicochemical; conditions: for Aspect of a 1.0% m/V solution in Tris solution corrected at pH = 8.1: Absorbance at 420 nm / Content of Dextrofolinic acid (H) / Optical rotation of a 1.0% m/V solution in Tris solution corrected at pH = 8.1 / Related substances: 5-CHO-4H-Pteroic acid (E) (% area) / Related substances: Any individual unknown impurities / Related substances: Dihydrofolic acid (G) (% area) / Related substances: Folic acid (C) (% area) / Related substances: N^5-N^10-diformyl-THF (B) (% area) / Related substances: N^10-CHO-dihydrofolic acid (F) (% area) / Related substances: N^10-CHO-folic acid (D) (% m/m) / Related substances: PABG (A) (% area) / Sum of all relates substances (% area) / Water content (%) / Assay of Levofolinic acid (% m/m) / Appearance: long-term: 25±2° C., 60±5% relative humidity; for Assay of Levofolinic acid (% m/m): anhydrous and solvent free basis; for Appearance: specification white to pale yellow powder
Experimental: (§1) Two specimens of the product obtained in example 1 are subjected to accelerated stability tests and long-term stability tests, respectively; the tests are carried out according to ICH conditions. Long-term: 25±2° C., 60±5% relative humidity Analytical methods used for the stability studies tests are described in the calcium levofolinate monograph of the European Pharmacopoeia.

[3] = Solubility in water or hydroalcoholic mixtures; assay type: physicochemical; conditions: pH range between 3.0 and 4.5
[4] = Accelerated stability test (ICH conditions); assay type: physicochemical; conditions: accelerated: 40±2° C., 75±5% relative humidity; for Assay of Levofolinic acid (% m/m): anhydrous and solvent free basis; for Appearance: specification white to pale yellow powder
Experimental: as §1, with “Accelerated: 40±2°” for “Long-term: 25±2°”, “75±5%” for “60±5%”

## Nc1nc(=O)c2c([nH]1)NC[C@H](CNc1ccc(C(=O)N[C@@H](CCC(=O)O)C(=O)O)cc1)N2C=O [Example 1, (6S)—N(5)-formyl-5,6,7,8-tetrahydrofolic acid]
[1]
  Stability: unstable
[2]; 0 months
  Aspect of a 1.0% m/V solution in Tris solution corrected at pH = 8.1: Absorbance at 420 nm: 0.06
  Content of Dextrofolinic acid (H): <0.10%
  Optical rotation of a 1.0% m/V solution in Tris solution corrected at pH = 8.1: −12.8 °
  Related substances: 5-CHO-4H-Pteroic acid (E) (% area): 0.36 % area
  Related substances: Any individual unknown impurities: <0.10 % area
  Related substances: Dihydrofolic acid (G) (% area): <0.10 % area
  Related substances: Folic acid (C) (% area): <0.10 % area
  Related substances: N^5-N^10-diformyl-THF (B) (% area): <0.10 % area
  Related substances: N^10-CHO-dihydrofolic acid (F) (% area): <0.10 % area
  Related substances: N^10-CHO-folic acid (D) (% m/m): <0.10 % m/m
  Related substances: PABG (A) (% area): <0.10 % area
  Sum of all relates substances (% area): 0.57 % area
  Water content (%): 0.8%
  Assay of Levofolinic acid (% m/m): 99.7 % m/m
  Appearance: Conform
[2]; 3 months
  Aspect of a 1.0% m/V solution in Tris solution corrected at pH = 8.1: Absorbance at 420 nm: 0.05
  Related substances: 5-CHO-4H-Pteroic acid (E) (% area): 0.31 % area
  Related substances: Any individual unknown impurities: <0.10 % area
  Related substances: Dihydrofolic acid (G) (% area): <0.10 % area
  Related substances: Folic acid (C) (% area): <0.10 % area
  Related substances: N^5-N^10-diformyl-THF (B) (% area): <0.10 % area
  Related substances: N^10-CHO-dihydrofolic acid (F) (% area): 0.13 % area
  Related substances: N^10-CHO-folic acid (D) (% m/m): <0.10 % m/m
  Related substances: PABG (A) (% area): <0.10 % area
  Sum of all relates substances (% area): 0.49 % area
  Water content (%): 0.8%
  Assay of Levofolinic acid (% m/m): 100.6 % m/m
  Appearance: Conform
[2]; 6 months
  Aspect of a 1.0% m/V solution in Tris solution corrected at pH = 8.1: Absorbance at 420 nm: 0.06
  Content of Dextrofolinic acid (H): <0.10%
  Related substances: 5-CHO-4H-Pteroic acid (E) (% area): 0.34 % area
  Related substances: Any individual unknown impurities: <0.10 % area
  Related substances: Dihydrofolic acid (G) (% area): <0.10 % area
  Related substances: Folic acid (C) (% area): <0.10 % area
  Related substances: N^5-N^10-diformyl-THF (B) (% area): <0.10 % area
  Related substances: N^10-CHO-dihydrofolic acid (F) (% area): 0.15 % area
  Related substances: N^10-CHO-folic acid (D) (% m/m): <0.10 % m/m
  Related substances: PABG (A) (% area): 0.10 % area
  Sum of all relates substances (% area): 0.70 % area
  Water content (%): 0.9%
  Assay of Levofolinic acid (% m/m): 98.8 % m/m
  Appearance: Conform
[2]; 9 months
  Aspect of a 1.0% m/V solution in Tris solution corrected at pH = 8.1: Absorbance at 420 nm: 0.04
  Related substances: 5-CHO-4H-Pteroic acid (E) (% area): 0.35 % area
  Related substances: Any individual unknown impurities: <0.10 % area
  Related substances: Dihydrofolic acid (G) (% area): <0.10 % area
  Related substances: Folic acid (C) (% area): <0.10 % area
  Related substances: N^5-N^10-diformyl-THF (B) (% area): <0.10 % area
  Related substances: N^10-CHO-dihydrofolic acid (F) (% area): 0.15 % area
  Related substances: N^10-CHO-folic acid (D) (% m/m): <0.10 % m/m
  Related substances: PABG (A) (% area): <0.10 % area
  Sum of all relates substances (% area): 0.55 % area
  Water content (%): 1.0%
  Assay of Levofolinic acid (% m/m): 99.4 % m/m
  Appearance: Conform
[2]; 12 months
  Aspect of a 1.0% m/V solution in Tris solution corrected at pH = 8.1: Absorbance at 420 nm: 0.06
  Related substances: 5-CHO-4H-Pteroic acid (E) (% area): 0.34 % area
  Related substances: Any individual unknown impurities: <0.10 % area
  Related substances: Dihydrofolic acid (G) (% area): <0.10 % area
  Related substances: Folic acid (C) (% area): <0.10 % area
  Related substances: N^5-N^10-diformyl-THF (B) (% area): <0.10 % area
  Related substances: N^10-CHO-dihydrofolic acid (F) (% area): 0.18 % area
  Related substances: N^10-CHO-folic acid (D) (% m/m): <0.10 % m/m
  Related substances: PABG (A) (% area): 0.11 % area
  Sum of all relates substances (% area): 0.63 % area
  Water content (%): 1.1%
  Assay of Levofolinic acid (% m/m): 99.4 % m/m
  Appearance: Conform
[2]; 18 months
  Aspect of a 1.0% m/V solution in Tris solution corrected at pH = 8.1: Absorbance at 420 nm: 0.05
  Optical rotation of a 1.0% m/V solution in Tris solution corrected at pH = 8.1: −13.1°
  Related substances: 5-CHO-4H-Pteroic acid (E) (% area): 0.36 % area
  Related substances: Any individual unknown impurities: <0.10 % area
  Related substances: Dihydrofolic acid (G) (% area): <0.10 % area
  Related substances: Folic acid (C) (% area): <0.10 % area
  Related substances: N^5-N^10-diformyl-THF (B) (% area): <0.10 % area
  Related substances: N^10-CHO-dihydrofolic acid (F) (% area): 0.17 % area
  Related substances: N^10-CHO-folic acid (D) (% m/m): <0.10 % m/m
  Related substances: PABG (A) (% area): 0.11 % area
  Sum of all relates substances (% area): 0.63 % area
  Water content (%): 0.9%
  Assay of Levofolinic acid (% m/m): 100.2 % m/m
  Appearance: Conform
[2]; 24 months
  Aspect of a 1.0% m/V solution in Tris solution corrected at pH = 8.1: Absorbance at 420 nm: 0.06
  Content of Dextrofolinic acid (H): <0.10%
  Related substances: 5-CHO-4H-Pteroic acid (E) (% area): 0.31 % area
  Related substances: Any individual unknown impurities: <0.10 % area
  Related substances: Dihydrofolic acid (G) (% area): <0.10 % area
  Related substances: Folic acid (C) (% area): <0.10 % area
  Related substances: N^5-N^10-diformyl-THF (B) (% area): <0.10 % area
  Related substances: N^10-CHO-dihydrofolic acid (F) (% area): 0.16 % area
  Related substances: N^10-CHO-folic acid (D) (% m/m): <0.10 % m/m
  Related substances: PABG (A) (% area): 0.13 % area
  Sum of all relates substances (% area): 0.66 % area
  Water content (%): 0.7%
  Assay of Levofolinic acid (% m/m): 99.4 % m/m
  Appearance: Conform
[2]; 36 months
  Aspect of a 1.0% m/V solution in Tris solution corrected at pH = 8.1: Absorbance at 420 nm: 0.08
  Content of Dextrofolinic acid (H): <0.10%
  Optical rotation of a 1.0% m/V solution in Tris solution corrected at pH = 8.1: −14.9°
  Related substances: 5-CHO-4H-Pteroic acid (E) (% area): 0.33 % area
  Related substances: Any individual unknown impurities: <0.10 % area
  Related substances: Dihydrofolic acid (G) (% area): <0.10 % area
  Related substances: Folic acid (C) (% area): <0.10 % area
  Related substances: N^5-N^10-diformyl-THF (B) (% area): <0.10 % area
  Related substances: N^10-CHO-dihydrofolic acid (F) (% area): 0.25 % area
  Related substances: N^10-CHO-folic acid (D) (% m/m): <0.10 % m/m
  Related substances: PABG (A) (% area): 0.16 % area
  Sum of all relates substances (% area): 0.73 % area
  Water content (%): 1.0%
  Assay of Levofolinic acid (% m/m): 99.6 % m/m
  Appearance: Conform
[2]; may resist unaltered during a shelf-life of up to three years
  Stability (conclusion from stability data of tables 2 and 3): stable
[2]; versus calcium levofolinate of the known art or levofolinic acid amorphous of U.S. Pat. No. 5,134,235
  Stability compared with known forms: better properties
[3]
  Solubility: scarcely soluble
[4]; 0 months
  Aspect of a 1.0% w/v solution in Tris buffer solution corrected at pH = 8.1: Absorbance at 420 nm: 0.06
  Content of Dextrofolinic acid (H): <0.10%
  Optical rotation of a 1.0% w/v solution in Tris solution corrected at pH = 8.1: −12.8 °
  Related substances: 5-CHO—4H-Pteroic acid (E) (% area): 0.36 % area
  Related substances: Any individual unknown impurities: <0.10 % area
  Related substances: Dihydrofolic acid (G) (% area): <0.10 % area
  Related substances: Folic acid (C) (% area): <0.10 % area
  Related substances: N^5-N^10-diformyl-THF (B) (% area): <0.10 % area
  Related substances: N^10—CHO-dihydrofolic acid (F) (% area): <0.10 % area
  Related substances: N^10—CHO-folic acid (D) (% m/m): <0.10 % m/m
  Related substances: PABG (A) (% area): <0.10 % area
  Sum of all relates substances (% area): 0.57 % area
  Water content (%): 0.8%
  Assay of Levofolinic acid (% m/m): 99.7 % m/m
  Appearance: Conform
[4]; 3 months
  Aspect of a 1.0% w/v solution in Tris buffer solution corrected at pH = 8.1: Absorbance at 420 nm: 0.05
  Related substances: 5-CHO—4H-Pteroic acid (E) (% area): 0.37 % area
  Related substances: Any individual unknown impurities: <0.10 % area
  Related substances: Dihydrofolic acid (G) (% area): <0.10 % area
  Related substances: Folic acid (C) (% area): <0.10 % area
  Related substances: N^5-N^10-diformyl-THF (B) (% area): <0.10 % area
  Related substances: N^10—CHO-dihydrofolic acid (F) (% area): 0.16 % area
  Related substances: N^10—CHO-folic acid (D) (% m/m): <0.10 % m/m
  Related substances: PABG (A) (% area): <0.10 % area
  Sum of all relates substances (% area): 0.63 % area
  Water content (%): 0.8%
  Assay of Levofolinic acid (% m/m): 99.9 % m/m
  Appearance: Conform
[4]; 6 months
  Aspect of a 1.0% w/v solution in Tris buffer solution corrected at pH = 8.1: Absorbance at 420 nm: 0.06
  Content of Dextrofolinic acid (H): <0.10%
  Related substances: 5-CHO—4H-Pteroic acid (E) (% area): 0.33 % area
  Related substances: Any individual unknown impurities: <0.10 % area
  Related substances: Dihydrofolic acid (G) (% area): <0.10 % area
  Related substances: Folic acid (C) (% area): <0.10 % area
  Related substances: N^5-N^10-diformyl-THF (B) (% area): <0.10 % area
  Related substances: N^10—CHO-dihydrofolic acid (F) (% area): 0.25 % area
  Related substances: N^10—CHO-folic acid (D) (% m/m): <0.10 % m/m
  Related substances: PABG (A) (% area): 0.13 % area
  Sum of all relates substances (% area): 0.84 % area
  Water content (%): 1.1%
  Assay of Levofolinic acid (% m/m): 99.0 % m/m
  Appearance: Conform
